BindingDB's records for doi:10.3109/14756366.2012.727812 (Shiraz University, 2013)
Several values for one entry are separate records, joined by “and”; a condition that tells them apart may be missing. Equal values may be shown once.

Target: Alpha-glucosidase MAL12 (Saccharomyces cerevisiae (strain ATCC 204508 / S288c), UniProt P53341)
Assay: Inhibition Assay
Details: pH 7
Procedure: In this study, the inhibition assay of yeast enzyme was performed in 100 mM phosphate buffer pH 7.0 at 25°C with minor changes, according to the methods reported previously. [Saijyo et al., J. Oleo. […] After centrifugation, the supernatant was dialyzed against 10 mM potassium phosphate buffer (pH 7.0) containing 0.

Chain of Alpha-glucosidase MAL12 (P53341 whole entry): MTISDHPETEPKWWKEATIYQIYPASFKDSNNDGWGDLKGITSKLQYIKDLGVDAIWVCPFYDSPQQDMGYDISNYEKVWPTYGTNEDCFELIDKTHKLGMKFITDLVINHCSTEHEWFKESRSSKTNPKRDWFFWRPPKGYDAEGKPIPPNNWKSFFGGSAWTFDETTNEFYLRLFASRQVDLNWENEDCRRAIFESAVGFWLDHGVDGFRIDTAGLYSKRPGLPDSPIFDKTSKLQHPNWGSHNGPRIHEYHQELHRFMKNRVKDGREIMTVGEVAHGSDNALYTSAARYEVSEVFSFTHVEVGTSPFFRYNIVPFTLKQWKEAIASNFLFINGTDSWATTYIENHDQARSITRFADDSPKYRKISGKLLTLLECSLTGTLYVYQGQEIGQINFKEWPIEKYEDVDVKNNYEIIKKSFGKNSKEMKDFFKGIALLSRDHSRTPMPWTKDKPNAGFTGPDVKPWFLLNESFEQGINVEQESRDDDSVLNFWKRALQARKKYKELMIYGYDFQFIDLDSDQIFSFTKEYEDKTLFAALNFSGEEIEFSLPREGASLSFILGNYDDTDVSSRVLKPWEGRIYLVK

O=c1[nH]c2c(c(=O)[nH]1)C(C(O)C(O)C(O)C(O)CO)c1c([nH]c(=O)[nH]c1=O)N2c1ccc(O)cc1 (stereo not drawn) [α-Gl inhibitor, C1]
IC50: 74.9 µM
Ki: 70 µM and 170 µM

O=c1[nH]c2c(c(=O)[nH]1)C(C(O)C(O)C(O)C(O)CO)c1c([nH]c(=O)[nH]c1=O)N2c1ccc(Br)cc1 (stereo not drawn) [α-Gl inhibitor, C2]
IC50: 25.1 µM
Ki: 30 µM and 130 µM

Nc1ccc(S(=O)(=O)c2ccc(N3c4[nH]c(=O)[nH]c(=O)c4C(C(O)C(O)C(O)C(O)CO)c4c3[nH]c(=O)[nH]c4=O)cc2)cc1 (stereo not drawn) [α-Gl inhibitor, C3]
IC50: 9.6 µM
Ki: 14 µM
